The results in this text go back to patent EP4806445A1, “USE OF COMPOSITION FOR PREVENTING, ALLEVIATING OR TREATING DIABETIC KIDNEY DISEASE COMPRISING ZINC SALT AND CYCLO-HISPRO AS ACTIVE INGREDIENTS” (Novmetapharma Co., Ltd., priority 2023, dated 2025).

Common to all, as to type: in vivo
Assay [1] concerns KKAy mice. Nature of the assay: Measurement of urine albumin (albuminuria) in diabetic kidney disease model. To be noted: week 16 of administration; for albuminuria: 24-hour urine, losartan 20 mg/kg in drinking water, dapagliflozin 2 mg/kg, CycloZ 15 mg/kg oral daily, negative control 51.4; for decrease in albuminuria compared to the negative control group: same doses as E1. The procedure:
Five-week-old KKay mice were purchased from Clea, Japan, and as a normal control group, five-week-old C57BL6/J mice were purchased from Daehan Bio Link Co., Ltd. Breeding was performed under constant conditions (temperature: 22±2 °C, relative humidity: 55±10%, circadian cycle: 12 hours), and Purina mouse diet was used as feed and distilled water was used as drinking water. Mice were used in the experiment after a one-week adaptation period following purchase. Lorsartan used in the examples below was purchased from […], and dapagliflozin was purchased from Betapahrma. Metabolic cages were prepared using products from Jeongdo B&P Co., Ltd. Isoflurane, which is necessary for anesthesia and dissection of mice, was purchased from Hana Pharm Co., Ltd., and the RC2 Rodent Circuit Controller Anesthesia System from Vetequip was prepared. Phosphate buffered saline (PBS) was purchased from Hyclone. The KKAy animal model is known to have 10-50 times higher proteinuria (albuminuria) than the db/db animal model, and is reported to show the most severe mesangial matrix expansion among all models. […] The normal control group and the negative control group were orally administered the same amount of distilled water daily. [Table 1] At week 16 of administration, 24-hour urine was collected using a metabolic cage and centrifuged at 2,000 rpm for 10 minutes to remove suspended solids. Albumin was measured with a DCA vantage analyzer (Siemens) and DCA® Microalbumin/Creatinine Urine Test cartridge (Siemens) using urine diluted 1/10 with distilled water.

Assay [2] concerns KKAy mice. Nature of the assay: ACR, drug administration from severe condition, CycloZ, losartan and/or sitagliptin (Example 4). The note with it: week 9. The procedure: (§1) At week 11 of administration, 24-hour urine was collected using a metabolic cage and centrifuged at 1,000 rpm for 5 minutes to remove suspended solids. Albumin was measured with a DCA vantage analyzer (Siemens) and DCA® Microalbumin/Creatinine Urine Test cartridge (Siemens) using urine diluted 1/2 with distilled water. Creatinine was measured using undiluted urine and a mouse creatinine assay kit (Crystalchem). The measured albumin (mg/dL) value was divided by the creatinine (g/dL) value to derive the ACR (mg/g) value.
After breeding five-week-old KKAy mice of Example 1-1 for 6 weeks, urine was collected for 24 hours and ACR was measured using the same method as in Example 3-2. The groups were randomly divided as shown in Table 5 so that the average ACR values were the same, and then the drug was orally administered daily for 9 weeks from the age of 12 weeks as shown in Table 5. At this time, losartan was dissolved in drinking water to allow a daily intake of 20 mg/kg per subject, and the remaining drugs were orally administered daily.
At week 9 of administration, 24-hour urine was collected using a metabolic cage, and ACR was measured using the same method as in Example 3-2.

In assay [3] the test system is KKAy mice. Nature of the assay: ACR, drug administration from severe condition, CycloZ and/or metformin (Example 5). The note with it: week 12. As for the experimental part:
as §1
After breeding five-week-old KKAy mice of Example 1-1 for 6 weeks, urine was collected for 24 hours and ACR was measured using the same method as in Example 3-2. The groups were randomly divided as shown in Table 6 so that the average ACR values were the same, and then the drug was orally administered daily for 12 weeks from the age of 12 weeks as shown in Table 6.
At week 12 of administration, 24-hour urine was collected using a metabolic cage, and ACR was measured using the same method as in Example 3-2.

Assay [4] has as its system KKAy mice. Nature of the assay: ACR, drug administration from mild condition (Example 3-1/3-2). The note with it: administration from mild stage, week 11. As for the experimental part: Five-week-old KKAy mice of Example 1-1 were pre-bred for one week and then divided into groups as shown in Table 1 so that the average body weights were the same. The control group was orally administered distilled water for 11 weeks, while Group 1 was orally administered 15 mg/kg of CycloZ, Group 2 was orally administered 10 mg/kg of sitagliptin, and Group 3 was orally administered 10 mg/kg of sitagliptin + 15 mg/kg of CycloZ daily for the same period.
as §1

For assay [5], the system named is KKAy mice. Nature of the assay: ACR, drug administration from severe condition, CycloZ and/or sitagliptin (Example 3-3/3-4). The note with it: week 11. As for the experimental part:
as §1
After breeding five-week-old KKAy mice of Example 1-1 for 6 weeks, urine was collected for 24 hours and ACR was measured using the same method as in Example 3-2. The groups were randomly divided as shown in Table 4 so that the average ACR values were the same, and then the drug was orally administered daily for 11 weeks from the age of 12 weeks as shown in Table 4.
At week 11 of administration, 24-hour urine was collected using a metabolic cage, and ACR was measured using the same method as in Example 3-2.

[6] abbreviates: administration from severe stage.

Regarding `CCOc1ccc(Cc2cc([C@@H]3O[C@H](CO)[C@@H](O)[C@H](O)[C@H]3O)ccc2Cl)cc1` [Dapagliflozin, dapagliflozin], in the assay with KKAy mice [1], the albuminuria is recorded as 31.1 mg/dL and the “decrease in albuminuria compared to the negative control group” value is 39.5%.
Take `CCCCc1nc(Cl)c(CO)n1Cc1ccc(-c2ccccc2-c2nn[nH]n2)cc1` [Losartan, losartan]: in the assay on KKAy mice [1], the albuminuria was determined as 39.3 mg/dL and the “decrease in albuminuria compared to the negative control group” value stood at 23.5%. Also, the ACR with KKAy mice [2] (administration from severe stage (age 12 weeks), CycloZ 15 mg/kg, losartan 20 mg/kg in drinking water, sitagliptin 10 mg/kg, negative control 7,118) is 7,158 mg/g. For the same molecule, the “effect on alleviating ACR (result in words)” value in the assay with KKAy mice [2] (setting [6]) was “did not show a significant effect on alleviating ACR”.
As to `CN(C)C(=N)N=C(N)N` [Metformin, metformin], the ACR in the assay with KKAy mice [3] (administration from severe stage (age 12 weeks), CycloZ 15 mg/kg, metformin 200 mg/kg oral daily, negative control 2,369) is 2,952 mg/g. For the same molecule, the “effect on alleviating ACR (result in words)” value in the assay with KKAy mice [3] (setting [6]) is listed as “did not show a significant effect on alleviating ACR”.
As to `N[C@@H](CC(=O)N1CCn2c(nnc2C(F)(F)F)C1)Cc1cc(F)c(F)cc1F` [Sitagliptin, sitagliptin], the “ACR reduced compared to the control group” value with KKAy mice [4] is on record as approximately 24%. In addition, the ACR in the assay with KKAy mice [4] (CycloZ 15 mg/kg, sitagliptin 10 mg/kg oral daily, negative control 6,379) was 4,852 mg/g; in the assay on KKAy mice [5] (administration from severe stage (age 12 weeks), CycloZ 15 mg/kg, sitagliptin 10 mg/kg oral daily, negative control 4,450) it was 2,301 mg/g. Further, the “ACR decrease compared to the negative control group” value with KKAy mice [5] (setting [6]) worked out at 48%.
